Source: US20230124720A1, “APPLICATION OF ACRIDINEDIONE COMPOUND IN PREPARATION OF ANTI-DIABETIC DRUGS” (THE FOURTH MILITARY MEDICAL UNIVERSITY, priority 2020, published 2023)

Legend:
[1] = tested on: MIN6 cells; test: Insulin secretion in PA-induced insulin-resistant MIN6 cells; type: cell-based, mouse; details: PA-induced IR model, 10 μmol/L, 24 h, 2.8 and 16.7 mmol/L glucose; P<0.001
Procedure: MIN6 cells were seeded in 24-well plates and cultured as described in step 2.1 to a cell confluency of more than 80% and administrated in the following groups, with 12 replicates per group: (1) normal control group (Con): cultured with blank 1640 medium; (2) insulin resistance model panel (IR): treated with 0.125 mmol/L PA for 24 h to induce establishment of an insulin resistance model; (3) ADD-16 administration group (ADD): 10 μmol/L ADD-16 intervention was administered for 24 h after successful establishment of the insulin resistance model; (4) TAK875 control group (TAK875): 10 μmol/L TAK875 was administered as a positive control drug intervention for 24 h after successful establishment of the insulin resistance model; (5) metformin control group (MT): 10 mmol/L metformin was administered as a positive control drug intervention for 24 h after successful establishment of the insulin resistance model; (6) sitagliptin control group (ST): 10 μmol/L sitagliptin was administered as a positive control drug intervention for 24 h after successful establishment of the insulin resistance model. After the group administration, the medium was aspirated and washed 2 times with a KRB buffer without sugar, followed by the addition of the KRB buffer without sugar. […] After incubation at 37° C. for 1 h, all the medium in the wells was aspirated and centrifuged at 2000 rmp/min for 20 min, and the supernatant was collected and stored at −20° C. The insulin content was measured for each group.

[2] = tested on: MIN6 cells; test: Western Blot / immunofluorescence of insulin signaling related molecules in insulin-resistant MIN6 cells; type: cell-based, mouse; details: insulin-resistant MIN6 cells, 24 h, P<0.001
Procedure: MIN6 cells were seeded in culture dishes at the appropriate density and cultured as described in step 2.1 to a confluency of about 80%. Cells were divided into the following 5 groups: (1) normal control group (Con): cultured with blank 1640 medium; (2) insulin resistance model panel (IR): treatment with 0.125 mmol/L PA for 24 h to induce establishment of a MIN6 cell insulin resistance model; (3) 3 μmol/L ADD-16 administration group (ADD I): 3 μmol/L ADD-16 intervention was given for 24 h after successful establishment of the insulin resistance model; (4) 10 μmol/L ADD-16 administration group (ADD II): 10 μmol/L ADD-16 intervention was given for 24 h after successful establishment of the insulin resistance model; (5) TAK875 control group (TAK875): 10 μmol/L TAK875 was administered as a positive control drug intervention for 24 h after successful establishment of the insulin resistance model. At the end of the group administration, groups of cells were harvested for WB or IF experiments.

[3] = tested on: STZ-induced T2DM rats; test: Postprandial blood glucose in STZ-induced T2DM rats; type: in vivo, rat; details: end of administration
Procedure: (§1) 150 male SD rats, housed in cages in a clean constant temperature (23±2° C.) and humidity (55±10%) animal house, were manually adjusted on a daily 12 h/12 h diurnal light cycle with free access to water. After 3 days of adaptive feeding, 150 rats were randomly divided into normal and model groups. The normal (Con, n=15) group of rats remained on raw chow and the model group (n=135) of rats were given high fat high sugar chow. All rats were fed twice daily and the amount of feed was adjusted as needed to ensure adequate feed. After 8 weeks of group feeding, the model group rats were given an intraperitoneal injection of 25 mg/kg STZ solution with a 12 h fast prior to injection. After injection, feeding was continued as in the original method, blood was taken from the tail vein at 72 h for blood glucose measurement, and rats with fasting blood glucose levels ≥11.1 mmol/L on different days were screened for successful artificial induction of T2DM and administered in groups for the next experiment. 135 rats with successful modeling were randomly divided into 9 groups: […] (2) 0.01 mg/kg ADD-16 administration group (ADD I, n=15): daily administration of 0.01 mg/kg ADD-16 solution by gavage; (3) 0.1 mg/kg ADD-16 administration group (ADD II, n=15): daily administration of a 0.1 mg/kg ADD-16 solution by gavage; (4) 1 mg/kg ADD-16 administration group (ADD III, n=15): daily administration of a 1 mg/kg ADD-16 solution by gavage; (5) 3 mg/kg ADD-16 administration group (ADD IV, n=15): daily administration of a 3 mg/kg ADD-16 solution by gavage; (6) 10 mg/kg ADD-16 administration group (ADD V, n=15): daily administration of a 10 mg/kg ADD-16 solution by gavage; (7) 50 mg/kg ADD-16 administration group (ADD VI, n=15): daily administration of a 50 mg/kg ADD-16 solution by gavage; […] (9) Sitagliptin control group (ST, n=15): daily administration of a 6 mg/kg sitagliptin solution by gavage. […] Relevant indicators of lipid metabolism were measured after the end of the study.

[4] = tested on: STZ-induced T2DM rats; test: Insulin tolerance test (ITT) in T2DM rats; type: in vivo, rat
Procedure: as §1, with “study. […] After the 120 min blood glucose value determination was completed, the diet was resumed. In the test, the condition of the rats was observed, and when abnormalities occurred, the experiment was stopped in time and a glucose solution was given by gavage to prevent death due to hypoglycemia.” for “study.”

[5] = ST group, 6 mg/kg daily by gavage
[6] = MT group, 250 mg/kg daily by gavage

Row | SMILES | insulin secretion level in insulin-resistant MIN6 cells (in words) [1] | expression of insulin signaling-related molecules, Western Blot (in words) [2] | reduction in blood glucose compared to the TD group [3, 5] [%] | decrease of ITT AUC compared to the TD group [4, 5] [%] | reduction in blood glucose compared to the TD group [3, 6] [%] | decrease of ITT AUC compared to the TD group [4, 6] [%]
1 | Cc1cc(OCCCS(C)(=O)=O)cc(C)c1-c1cccc(COc2ccc3c(c2)OC[C@H]3CC(=O)O)c1 [TAK875, reference compound] | even higher than in Con group | upregulate GPR40, PGC-1α, P-P38, P-EP300, PPARγ, P-AKT, PI3K, IRS1 and GLUT4 expression | – | – | – | –
2 | N[C@@H](CC(=O)N1CCn2c(nnc2C(F)(F)F)C1)Cc1cc(F)c(F)cc1F [sitagliptin, reference compound] | even higher than in Con group | – | 61.5 | 51.4 | – | –
3 | CN(C)C(=N)N=C(N)N [metformin, reference compound] | – | – | – | – | 45.0 | 39.9
